In patent publication US20080293771A1, “AZACYCLYLBENZAMIDE DERIVATIVES AS HISTAMINE-3 ANTAGONISTS” (Wyeth, priority 2007, published 2008):
Where a name gives a salt, the structure may show the parent alone.

Tests used:
[1] = target: T1, Human Histamine H3 Receptor (Homo sapiens, UniProt Q9Y5N1); assay: Methyl histamine binding in Human Histamine H3 Receptor Cell Line; settings: read-out: hH3 Binding Ki
T1 construct: expressed in transfected cells; host or cells: HEK293T (stably transfected; membrane preparation)
T1 sequence (Q9Y5N1 whole entry): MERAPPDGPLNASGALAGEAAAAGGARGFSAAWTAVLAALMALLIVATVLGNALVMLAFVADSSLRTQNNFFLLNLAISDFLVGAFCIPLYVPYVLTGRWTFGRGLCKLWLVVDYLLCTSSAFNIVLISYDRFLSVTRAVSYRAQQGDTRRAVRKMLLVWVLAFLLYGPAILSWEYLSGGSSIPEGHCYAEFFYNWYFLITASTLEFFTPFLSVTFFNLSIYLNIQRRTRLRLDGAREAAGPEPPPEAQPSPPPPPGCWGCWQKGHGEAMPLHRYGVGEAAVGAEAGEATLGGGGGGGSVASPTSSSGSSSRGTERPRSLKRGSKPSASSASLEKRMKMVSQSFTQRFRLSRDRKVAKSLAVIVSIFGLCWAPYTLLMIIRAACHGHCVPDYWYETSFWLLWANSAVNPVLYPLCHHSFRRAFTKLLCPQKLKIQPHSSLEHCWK
Experimental: Evaluation of Methyl histamine binding in Human Histamine H3 Receptor Cell Line
The affinity of test compounds for the histamine 3 (H3) receptor is evaluated in the following manner. […] Cells are scraped from the plate, transferred to centrifuge tubes, washed one time in PBS by centrifugation in a Sorvall RT7 Plus centrifuge (2000 rpm 10 minutes, 4° C.). The resulting pellets are stored at −80° C. until ready for use. Cells are re-suspended in buffer (50 mM Tris pH=7.5) and placed in a Dounce homogenizer, douncing ten times to homogenize cells. The homogenate is spun down by centrifugation (Sorvall RT7 Plus, 1800 rpm 10 minutes, 4° C.). The supernatant is placed in a Corex tube and spun down by centrifugation (Sorvall RC 5c Plus, 17,000 rpm 20 minutes, 4° C.). The pellet is resuspended in buffer (50 mM Tris, pH 7.5). Protein concentration (ug/ul) is determined using the Micro-BCA Protein Determination. The binding assay is set up in a 96 well microtiter plate in a total volume of 250 uL. Non-specific binding is determined in the presence of 10 uM clobenpropit. The final radioligand concentration is 1 nM. The test compound is serially diluted using the Beckman Biomek2000 to a final approximate range of 100 uM to 100 pM. Membranes are suspended in buffer, homogenized in 2 bursts of ten seconds using a Vitris mechanical homogenizer set at power setting 5. Ten μg of membranes are added to each well. Following a one hour incubation at 30° C., the reaction is terminated by the addition of ice cold buffer and rapid filtration with a Packard Filtermate Harvester through a GF/B filter pre-soaked with 1% PEI for one hour. The plate is dried for one hour at 37° C. and 60 μL Microscint Scintillant is added to each well. The CPM per well is measured on a Packard Top Count NXT. Ki values are determined in nM. […] CPM values are expressed as % specific binding and plotted vs compound concentration. A curve is fitted using a four-parameter logistic fit and the IC50 value is determined. The Ki is calculated from this using the Cheng-Prusoff equation: […]=IC50/1+(L/Kd) where L=concentration of free radioligand used in the assay, and Kd is the dissociation constant of the radioligand for the receptor. L is determined for each experiment by counting an aliquot of the diluted radioligand (corresponding to that added to each well) and the Kd has previously been determined under identical conditions for this cell line/radioligand.

Row | Compound | Ki [1] [nM] | melting point [°C]
1 | Cc1nc2ccccc2n1Cc1ccc(C(=O)N(C)C2CCNCC2)cc1 [Example 44, N-methyl-4-((2-methyl-1H-benzo[d]imidazol-1-yl)methyl)-N-(piperidin-4-yl)benzamide] | > 100 | 196 to 198
2 | CN(C(=O)c1ccc(Cn2cnc3ccccc32)cc1)C1CCNCC1 [Example 45, 4-((1H-benzo[d]imidazol-1-yl)methyl)-n-methyl-N-(piperidin-4-yl)benzamide] | > 100 | 199 to 201
3 | Cc1nc2cc(C#N)ccc2n1-c1ccc(C(=O)N(C)[C@@H]2CCNC2)cc1 [Example 53, (R)-4-(5-cyano-2-methyl-benzoimidazol-1-yl)-N-methyl-N-pyrrolidin-3-yl-benzamide] | > 100 | 178 to 180
4 | CC(C)N1CCC(N(C)C(=O)c2ccc(Cn3cccn3)cc2)CC1 [Example 91, N-methyl-N-[1-(1-methylethyl)piperidin-4-yl]-4-(1H-pyrazol-1-ylmethyl)benzamide] | > 100 | 
5 | CN(C(=O)c1ccc(Cn2cccn2)cc1)C1CCN(C2CCC2)CC1 [Example 92, N-(1-cyclobutylpiperidin-4-yl)-N-methyl-4-(1H-pyrazol-1-ylmethyl)benzamide] | > 100 | 
6 | CN(C(=O)c1ccc(Cn2cccn2)cc1)C1CCN(C2CCCC2)CC1 [Example 93, N-(1-cyclopentylpiperidin-4-yl)-N-methyl-4-(1H-pyrazol-1-ylmethyl)benzamide] | > 100 | 
7 | Cc1nc2ccccc2n1-c1ccc(C(=O)N(C)[C@@H]2CCN(C(C)C)C2)cc1F [Example 103, 3-fluoro-N-methyl-4-(2-methyl-1H-benzimidazol-1-yl)-N-[(3R)-1-(1-methylethyl)pyrrolidin-3-yl]benzamide] | 10.1 to 50 | 
8 | Cc1nc2ccccc2n1-c1ccc(C(=O)N(C)[C@@H]2CCN(C3CCC3)C2)cc1F [Example 104, N-[(3R)-1-cyclobutylpyrrolidin-3-yl]-3-fluoro-N-methyl-4-(2-methyl-1H-benzimidazol-1-yl)benzamide] | 10.1 to 50 | 
9 | Cc1nc2ccccc2n1-c1ccc(C(=O)N(C)[C@@H]2CCN(C(C)C)C2)c(Cl)c1 [Example 105, 2-chloro-N-methyl-4-(2-methyl-1H-benzimidazol-1-yl)-N-[(3R)-1-(1-methylethyl)pyrrolidin-3-yl]benzamide] | 10.1 to 50 | 
10 | Cc1nc2ccccc2n1-c1ccc(C(=O)N(C)[C@@H]2CCN(C3CCC3)C2)c(Cl)c1 [Example 106, 2-chloro-N-[(3R)-1-cyclobutylpyrrolidin-3-yl]-N-methyl-4-(2-methyl-1H-benzimidazol-1-yl)benzamide] | 10.1 to 50 | 
11 | Cc1nc2ccccc2n1-c1ccc(C(=O)N(C)C2CCN(C(C)C)CC2)cc1F [Example 119, 3-fluoro-N-methyl-4-(2-methyl-1H-benzimidazol-1-yl)-N-[1-(1-methylethyl)piperidin-4-yl]benzamide] | ≤ 10 | 
12 | Cc1nc2ccccc2n1-c1ccc(C(=O)N(C)C2CCN(C3CCCC3)CC2)cc1F [Example 120, N-(1-cyclopentylpiperidin-4-yl)-3-fluoro-N-methyl-4-(2-methyl-1H-benzimidazol-1-yl)benzamide] | 10.1 to 50 | 
13 | Cc1nc2ccccc2n1-c1ccc(C(=O)N(C)C2CCN(C(C)C)CC2)c(Cl)c1 [Example 121, 2-chloro-N-methyl-4-(2-methyl-1H-benzimidazol-1-yl)-N-[1-(1-methylethyl)piperidin-4-yl]benzamide] | ≤ 10 | 
14 | Cc1nc2ccccc2n1-c1ccc(C(=O)N(C)C2CCN(C3CCCC3)CC2)c(Cl)c1 [Example 122, 2-chloro-N-(1-cyclopentylpiperidin-4-yl)-N-methyl-4-(2-methyl-1H-benzimidazol-1-yl)benzamide] | 50.1 to 100 | 
15 | Cc1nc2ccccc2n1-c1ccc(C(=O)N[C@@H]2CCN(C3CCCCC3)C2)cc1 [Example 137, N-[(3R)-1-cyclohexylpyrrolidin-3-yl]-4-(2-methyl-1H-benzimidazol-1-yl)benzamide] | > 100 | 
16 | CCN(C(=O)c1ccc(-n2c(C)nc3ccccc32)cc1)[C@@H]1CCNC1 [Example 138, (R)—N-ethyl-4-(2-methyl-1H-benzo[d]imidazol-1-yl)-N-(pyrrolidin-3-yl)benzamide hydrochloride] | > 100 | 
17 | CCN(C(=O)c1ccc(-n2c(C)nc3ccccc32)cc1)[C@@H]1CCN(C2CCCCC2)C1 [Example 142, N-[(3R)-1-cyclohexylpyrrolidin-3-yl]-N-ethyl-4-(2-methyl-1H-benzimidazol-1-yl)benzamide] | > 100 | 
